Experimental findings from patent EP0491061A1, “Use of enalapril and perindopril as prolactin-lowering medicament” (Weth, Gosbert Dr. med., Dr. rer. nat., priority 1990, dated 1992) are described below.

SMILES strings stand for the structures. Entries after “also recorded” stand apart in the source; their conditions may differ.

For assay [1], the system named is Dopamin. The experiment in a line: Plasma dopamine determination (method of Weth) in patients with circulatory disorders after dosing. It is filed as in vivo, Patienten. Conditions: for Dopamin MW: mean of 12 patients. An excerpt:
Die durch die erfindungsgemäß verwendeten N-(Aminoacyl)-aminosäuren erhöhte Freisetzung von Dopamin bei gleichzeitiger Senkung des Prolaktins konnte durch pharmakologische Tests veranschaulicht und bewiesen werden. Die Dopaminbestimmung wurde nach G. Weth, "Das Verhalten der Neurotransmitter....", Dissertation, Würzburg, 1987, S. 123-138, durchgeführt. Die Bestimmung von Prolaktin wurde radioimmunologisch nach den Methoden von P. Hwang, H. Guyda, H. Friesen, Proc. Nat. Sci. (USA) 1971,68-8, S.1902-06 durchgeführt.
Für die Untersuchungen wurden 2x12 Patienten (Alter 75±10 Jahre) herangezogen, die unter Durchblutungsstörungen, sowohl peripheren als auch zentralen, litten. Bei diesen Patienten wurden sowohl vor der Gabe von Enalaprilhydrogenmaleat, als auch 15, 30, 60, und 120 Minuten nach der Gabe von Enalaprilhydrogenmaleat Dopamin und Prolaktin bestimmt.
Die Patienten bekamen sublingual […] Enalaprilhydrogenmaleat verabreicht (RR zwischen 100/70 und 170/110; MW 130/90 mm Hg).
Die Bestimmung der Dopamin- und Prolaktinwerte wurde wie folgt vorgenommen. In Zeitabschnitten von 15, 30, 60 und 120 Minuten wurden dem Patienten je 5 ml Blut entnommen und in speziell präparierten Vakuum-Behältern, die Glutathion und EDTA enthielten gegeben. Das Blut wird sofort auf 2°C abgekühlt und bei 2°C zentrifugiert. Das überstehende Blutplasma wurde bis zur Dopamin- und Prolaktinbestimmung bei minus 80 °C tiefgefroren.
Die Dimensionsangaben betragen für Dopamin pg/ml bzw. ng/l und für Prolaktin ng/ml.

The test system of assay [2] is Prolaktin. The experiment in a line: Plasma prolactin determination by radioimmunoassay (method of Hwang et al.) in patients after dosing. It is filed as in vivo, Patienten. The settings on record: for Prolaktinsenkung: average weight 60 kg.

Turning to `CCOC(=O)[C@H](CCc1ccccc1)N[C@@H](C)C(=O)N1CCC[C@H]1C(=O)O` [Enalaprilhydrogenmaleat], the “Dopamin MW” value in assay [1] (15 min after 20 mg Enalaprilhydrogenmaleat, plasma) is 143 pg/mL; in assay [1] (30 min after 20 mg Enalaprilhydrogenmaleat, plasma) it was 188 pg/mL; in assay [1] (60 min after 20 mg Enalaprilhydrogenmaleat, plasma), 253 pg/mL; in assay [1] (90 min after 20 mg Enalaprilhydrogenmaleat, plasma), 230 pg/mL; in assay [1] (120 min after 20 mg Enalaprilhydrogenmaleat, plasma), 182 pg/mL; in assay [1] (time 0 (before dosing), 20 mg Enalaprilhydrogenmaleat, plasma) it was 105 pg/mL. Further, in assay [1] (Fig. 1, 20 mg sublingual, average weight 60 kg, plasma), the “Höhepunkt des Dopaminanstiegs (time)” value was determined as 60 min. Moreover, in assay [1] (in words, 15 min after sublingual dosing), the “Anstieg des Dopamins” value is recorded as “hochsignifikanten Anstieg; also recorded: signifikanten Anstieg”. Besides, the “Prolaktin MW” value in assay [2] (15 min after 20 mg Enalaprilhydrogenmaleat, plasma, mean of 12 patients) is reported as 15,4 ng/ml; in assay [2] (30 min after 20 mg Enalaprilhydrogenmaleat, plasma, mean of 12 patients), 14,3 ng/ml; in assay [2] (60 min after 20 mg Enalaprilhydrogenmaleat, plasma, mean of 12 patients), 11,9 ng/ml; in assay [2] (90 min after 20 mg Enalaprilhydrogenmaleat, plasma, mean of 12 patients), 10,8 ng/ml; in assay [2] (120 min after 20 mg Enalaprilhydrogenmaleat, plasma, mean of 12 patients), 10,2 ng/ml; in assay [2] (time 0 (before dosing), 20 mg Enalaprilhydrogenmaleat, plasma, mean of 12 patients), 16,2 ng/ml. Further, in assay [2] (in words, 30 min after sublingual dosing), the “Senkung des Prolaktins” value is listed as “deutlichen Senkung”. Also, the Prolaktinsenkung result in assay [2] (in words, Fig. 2, 30 min after 20 mg oral) is reported as “signifikante”; in assay [2] (in words, Fig. 2, 60 min after 20 mg oral), “hochsignifikante Prolaktinsenkung”. Besides, in assay [2] (in words, after 25 mg (so in the source)), the “Abfall von Prolaktin” value was “signifikanten Abfall”.
With `CCC[C@H](N[C@@H](C)C(=O)N1[C@H](C(=O)O)C[C@@H]2CCCC[C@@H]21)C(=O)OCC` [Perindopril], the “Prolaktin MW” value in assay [2] (30 min after 20 mg Perindopril oral, mean of 12 patients (average weight 60 kg)) was 12,3 pg/ml. Also, the “Prolaktin im Blutplasma” value stood at 12 ng/mL in assay [2] (Fig. 3, 30 min after 20 mg oral) and 7 ng/mL in assay [2] (Fig. 3, 90 min after 20 mg oral). For the same compound, the “Anfangskonzentration Prolaktin” value in assay [2] (Fig. 3, before 20 mg oral, blood plasma) was found to be 15 ng/mL.
